# Values of other authors in patent US20210213090A1, “COMPOSITIONS, USES AND METHODS FOR TREATMENT AND/OR PREVENTION OF ELEVATED CHOLESTEROL, HYPERCHOLESTEROLEMIA, AND CARDIOVASCULAR DISEASE” (Nutraceutical Holdings Inc., priority 2018, published 2021).
# System: LDL-C / cholesterol
# Conditions: human, in vivo
smiles,measurement,value
"COC1=C(OC)C(=O)C(C/C=C(\C)CC/C=C(\C)CC/C=C(\C)CC/C=C(\C)CC/C=C(\C)CC/C=C(\C)CC/C=C(\C)CC/C=C(\C)CC/C=C(\C)CCC=C(C)C)=C(C)C1=O [coenzyme Q10, ubiquinone]","effect of supplementation on statin-related muscle symptoms, in words",decreases statin-related mild-to-moderate muscle symptoms
